{"source": "patent US20140349948A1", "about": "“Treatment of Chronic Constipation” (Forest Laboratories Holdings Limited, priority 2009, published 2014)", "key": {"[1]": {"tested_on": "patients with chronic constipation", "experiment": "Chronic Constipation Trial 2, 12-week treatment period", "format": "in vivo, human", "conditions": "for Straining, Week 1 Mean Change from Baseline / Abdominal discomfort, Week 1 Mean Change from Baseline / Bloating, Week 1 Mean Change from Baseline / Constipation severity, Week 1 Mean Change from Baseline: 5-point scale: 1 = none; for Straining, Week 1 Mean Change from Baseline: 5 = an extreme amount; for Abdominal discomfort, Week 1 Mean Change from Baseline / Bloating, Week 1 Mean Change from Baseline / Constipation severity, Week 1 Mean Change from Baseline: 5 = very severe; for Stool Consistency, Week 1 Mean Change from Baseline: 7-point scale (BSFS)", "procedure": "(§1) Linaclotide Capsules from Example 4 were administered in multicenter, randomized, double-blind, placebo-controlled trials.\n(§2) Trial 1 was conducted in 630 patients meeting modified Rome II criteria for chronic constipation. The trial included a two-week pretreatment baseline period and a 12-week treatment period. A diagram of the study design for Trial 2 is given in FIG. 1, which is substantially similar to Trial 1 except for the addition of a Randomized Withdrawal period in Trial 2 as described below.\nThe Treatment Period began with randomization and lasted for 12 weeks. Patients were randomized to treatment with 133 μg linaclotide, 266 μg linaclotide, or placebo (1:1:1), taken once daily in the morning. Patients continued to provide their daily assessments such as their daily bowel habit assessments and daily patient symptom severity assessments.\n(§3) Trial 2 was conducted in 642 patients and was identical to Trial 1 except that Trial 2 also included a four-week Randomized Withdrawal Period, defined below. During the two-week pretreatment (baseline) period, 68 percent of patients in Trial 2 had no CSBMs."}, "[2]": {"tested_on": "patients with chronic constipation", "experiment": "Trials 1 and 2 pooled", "format": "in vivo, human", "conditions": "for Straining, Week 1 Mean Change from Baseline / Abdominal discomfort, Week 1 Mean Change from Baseline / Bloating, Week 1 Mean Change from Baseline / Constipation severity, Week 1 Mean Change from Baseline: 5-point scale: 1 = none; for Straining, Week 1 Mean Change from Baseline: 5 = an extreme amount; for Abdominal discomfort, Week 1 Mean Change from Baseline / Bloating, Week 1 Mean Change from Baseline / Constipation severity, Week 1 Mean Change from Baseline: 5 = very severe; for Stool Consistency, Week 1 Mean Change from Baseline: 7-point scale (BSFS)", "procedure": "as §1, §2, §3"}, "[3]": {"conditions": "Trial 2, 133 μg (p≦0.0001) and 266 μg (p≦0.0001)"}}, "note": "Marks after values point to notes of the source that are not given here. Residues, ends and D or L forms follow the SMILES beside them."}
{"compound": "C[C@@H]1NC(=O)[C@@H]2CCCN2C(=O)[C@H](CC(N)=O)NC(=O)[C@@H]2CSSC[C@H](N)C(=O)N[C@H]3CSSC[C@H](NC1=O)C(=O)N[C@@H]([C@@H](C)O)C(=O)NCC(=O)N[C@H](C(=O)N[C@@H](Cc1ccc(O)cc1)C(=O)O)CSSC[C@H](NC(=O)[C@H](Cc1ccc(O)cc1)NC(=O)[C@H](CCC(=O)O)NC3=O)C(=O)N2", "note": "[Linaclotide, Cys1 Cys2 Glu3 Tyr4 Cys5 Cys6 Asn7 Pro8 Ala9 Cys10 Thr11 Gly12 Cys13 Tyr14] (HELM PEPTIDE1{C.C.E.Y.C.C.N.P.A.C.T.G.C.Y}$PEPTIDE1,PEPTIDE1,1:R3-6:R3|PEPTIDE1,PEPTIDE1,2:R3-10:R3|PEPTIDE1,PEPTIDE1,5:R3-13:R3$$$V2.0)", "values": [{"measurement": "CSBM rate, Week 1 Mean Change from Baseline", "setting": "[1]; 133 μg, Trial 2 (n = 217)", "value": "1.89***"}, {"measurement": "SBM rate, Week 1 Mean Change from Baseline", "setting": "[1]; 133 μg, Trial 2 (n = 217)", "value": "3.59***"}, {"measurement": "Straining, Week 1 Mean Change from Baseline", "setting": "[1]; 133 μg, Trial 2 (n = 217)", "value": "−0.99***"}, {"measurement": "Abdominal discomfort, Week 1 Mean Change from Baseline", "setting": "[1]; 133 μg, Trial 2 (n = 217)", "value": "−0.23"}, {"measurement": "Bloating, Week 1 Mean Change from Baseline", "setting": "[1]; 133 μg, Trial 2 (n = 217)", "value": "−0.32**"}, {"measurement": "Constipation severity, Week 1 Mean Change from Baseline", "setting": "[1]; 133 μg, Trial 2 (n = 217)", "value": "−0.80***"}, {"measurement": "Stool Consistency, Week 1 Mean Change from Baseline", "setting": "[1]; 133 μg, Trial 2 (n = 217)", "value": "1.75***"}, {"measurement": "CSBM rate, Week 1 Mean Change from Baseline", "setting": "[1]; 266 μg, Trial 2 (n = 216)", "value": "2.02***"}, {"measurement": "SBM rate, Week 1 Mean Change from Baseline", "setting": "[1]; 266 μg, Trial 2 (n = 216)", "value": "3.61***"}, {"measurement": "Straining, Week 1 Mean Change from Baseline", "setting": "[1]; 266 μg, Trial 2 (n = 216)", "value": "−1.06***"}, {"measurement": "Abdominal discomfort, Week 1 Mean Change from Baseline", "setting": "[1]; 266 μg, Trial 2 (n = 216)", "value": "−0.21"}, {"measurement": "Bloating, Week 1 Mean Change from Baseline", "setting": "[1]; 266 μg, Trial 2 (n = 216)", "value": "−0.27*"}, {"measurement": "Constipation severity, Week 1 Mean Change from Baseline", "setting": "[1]; 266 μg, Trial 2 (n = 216)", "value": "−0.76***"}, {"measurement": "Stool Consistency, Week 1 Mean Change from Baseline", "setting": "[1]; 266 μg, Trial 2 (n = 216)", "value": "1.81***"}, {"measurement": "12-week CSBM overall responder rate", "setting": "[1]; Trial 2, 133 μg", "value": 21.2, "unit": "%"}, {"measurement": "increase in average weekly CSBMs from baseline", "setting": "[1]; Trial 2, 133 μg", "value": 1.9}, {"measurement": "increase in average weekly SBMs from baseline", "setting": "[1]; Trial 2, 133 μg", "value": 3.0}, {"measurement": "numerical increase of 12-week CSBM overall responder rate as compared to placebo", "setting": "[1]; Trial 2, 133 μg", "value": 6.3, "unit": "fold"}, {"measurement": "patients reporting at least one CSBM within 24 hours of treatment", "setting": "[1]; Trial 2, 133 μg", "value": 33.2, "unit": "%"}, {"measurement": "patients reporting at least one SBM within 24 hours of treatment", "setting": "[1]; Trial 2, 133 μg", "value": 70.0, "unit": "%"}, {"measurement": "patients who experienced weekly CSBMs in at least nine out of 12 weeks", "setting": "[1]; Trial 2, 133 μg", "value": 21.7, "unit": "%"}, {"measurement": "patients with increase of ≧1 from baseline in weekly CSBMs in at least nine out of 12 weeks", "setting": "[1]; Trial 2, 133 μg", "value": 39.2, "unit": "%"}, {"measurement": "patients with increase of ≧1 from baseline in weekly CSBMs in at least six out of 12 weeks", "setting": "[1]; Trial 2, 133 μg", "value": 56.7, "unit": "%"}, {"measurement": "12-week CSBM overall responder rate", "setting": "[1]; Trial 2, 266 μg", "value": 19.4, "unit": "%"}, {"measurement": "increase in average weekly CSBMs from baseline", "setting": "[1]; Trial 2, 266 μg", "value": 2.0}, {"measurement": "increase in average weekly SBMs from baseline", "setting": "[1]; Trial 2, 266 μg", "value": 3.0}, {"measurement": "numerical increase of 12-week CSBM overall responder rate as compared to placebo", "setting": "[1]; Trial 2, 266 μg", "value": 5.8, "unit": "fold"}, {"measurement": "patients reporting at least one CSBM within 24 hours of treatment", "setting": "[1]; Trial 2, 266 μg", "value": 26.9, "unit": "%"}, {"measurement": "patients reporting at least one SBM within 24 hours of treatment", "setting": "[1]; Trial 2, 266 μg", "value": 54.6, "unit": "%"}, {"measurement": "patients who experienced weekly CSBMs in at least nine out of 12 weeks", "setting": "[1]; Trial 2, 266 μg", "value": 19.4, "unit": "%"}, {"measurement": "patients with increase of ≧1 from baseline in weekly CSBMs in at least nine out of 12 weeks", "setting": "[1]; Trial 2, 266 μg", "value": 37.0, "unit": "%"}, {"measurement": "patients with increase of ≧1 from baseline in weekly CSBMs in at least six out of 12 weeks", "setting": "[1]; Trial 2, 266 μg", "value": 50.5, "unit": "%"}, {"measurement": "PAC-QOL overall assessments, 12 week overall mean change versus placebo", "setting": "[1]; [3]", "value": "statistically significant improvements"}, {"measurement": "overall constipation severity score, 12 week overall mean change versus placebo", "setting": "[1]; [3]", "value": "statistically significant improvements"}, {"measurement": "severity of straining score, 12 week overall mean change versus placebo", "setting": "[1]; [3]", "value": "statistically significant improvements"}, {"measurement": "stool consistency score, 12 week overall mean change versus placebo", "setting": "[1]; [3]", "value": "statistically significant improvements"}, {"measurement": "bloating score, 12 week overall mean change versus placebo", "setting": "[1]; Trial 2, 133 μg (p≦0.0001) and 266 μg (p≦0.01)", "value": "statistically significant improvements"}, {"measurement": "abdominal discomfort score, 12 week overall mean change versus placebo", "setting": "[1]; Trial 2, 133 μg (p≦0.001) and 266 μg (p≦0.01)", "value": "statistically significant improvements"}, {"measurement": "abdominal discomfort in week 2", "setting": "[1]; study 2, week 2 (p<0.01)", "value": "Statistically significant improvement"}, {"measurement": "CSBM rate, Week 1 Mean Change from Baseline", "setting": "[2]; 133 μg, Pooled (n = 430)", "value": "2.02**"}, {"measurement": "SBM rate, Week 1 Mean Change from Baseline", "setting": "[2]; 133 μg, Pooled (n = 430)", "value": "3.96***"}, {"measurement": "Straining, Week 1 Mean Change from Baseline", "setting": "[2]; 133 μg, Pooled (n = 430)", "value": "−1.02***"}, {"measurement": "Abdominal discomfort, Week 1 Mean Change from Baseline", "setting": "[2]; 133 μg, Pooled (n = 430)", "value": "−0.26***"}, {"measurement": "Bloating, Week 1 Mean Change from Baseline", "setting": "[2]; 133 μg, Pooled (n = 430)", "value": "−0.31***"}, {"measurement": "Constipation severity, Week 1 Mean Change from Baseline", "setting": "[2]; 133 μg, Pooled (n = 430)", "value": "−0.82***"}, {"measurement": "Stool Consistency, Week 1 Mean Change from Baseline", "setting": "[2]; 133 μg, Pooled (n = 430)", "value": "1.78***"}, {"measurement": "CSBM rate, Week 1 Mean Change from Baseline", "setting": "[2]; 266 μg, Pooled (n = 418)", "value": "2.42**"}, {"measurement": "SBM rate, Week 1 Mean Change from Baseline", "setting": "[2]; 266 μg, Pooled (n = 418)", "value": "4.01***"}, {"measurement": "Straining, Week 1 Mean Change from Baseline", "setting": "[2]; 266 μg, Pooled (n = 418)", "value": "−1.14***"}, {"measurement": "Abdominal discomfort, Week 1 Mean Change from Baseline", "setting": "[2]; 266 μg, Pooled (n = 418)", "value": "−0.26***"}, {"measurement": "Bloating, Week 1 Mean Change from Baseline", "setting": "[2]; 266 μg, Pooled (n = 418)", "value": "−0.31***"}, {"measurement": "Constipation severity, Week 1 Mean Change from Baseline", "setting": "[2]; 266 μg, Pooled (n = 418)", "value": "−0.85***"}, {"measurement": "Stool Consistency, Week 1 Mean Change from Baseline", "setting": "[2]; 266 μg, Pooled (n = 418)", "value": "1.87***"}, {"measurement": "Overall rates of discontinuation due to adverse events", "setting": "[2]; both trial 1 and 2", "value": 7.4, "unit": "%"}, {"measurement": "most common adverse events", "setting": "[2]; both trial 1 and 2, linaclotide-treated patients", "value": "diarrhea, flatulence, and abdominal pain"}]}
